The numbers were not newly measured in patent US11185565B2, “Compositions including milk thistle and methods of use” (GM Pharmaceuticals, Inc., priority 2019, dated 2021), which cites them from elsewhere.

SMILES strings stand for the structures.

The conditions of data set [1]: additional chromium in drinking water; obese and insulin resistant mammals.
For data set [2] the following is noted: addition of chromium to carbohydrate-rich meals.
For data set [3] the following is noted: deficiency in PQQ, mammals.

`[Cr]` [chromium]: the “glucose disposal rates and insulin-stimulated signaling in skeletal muscles” value in data set [1] is recorded as “significantly improved”. Moreover, the “reduction in blood sugar after the carbohydrate-rich meals” value in data set [2] is reported as over 20%.

With `O=C(O)c1cc(C(=O)O)c2c(n1)C(=O)C(=O)c1cc(C(=O)O)[nH]c1-2.[Na].[Na]` [PQQ, pyrroloquinoline quinone disodium], the “decrease in metabolic rate” value in data set [3] is reported as about 10%.
